Measured values taken from patent US5688773A, “Method of selectively destroying neoplastic cells” (priority 1994, dated 1997).

What was measured:
CNEO-1 cells = experiment: Cyclophosphamide dose-response assay; assay type: cell-based; details: Rattus norvegicus, C6 glioma; up to 1 mM CPA; read-out: cells that survived incubation
Method: Two days later CPA was added to final concentrations of 0-100 μM. Five days after plating, the monolayers were rinsed twice with Hank's buffered saline (GIBCO) to remove dead cells. Monolayers were dispersed using trypsin-EDTA (GIBCO), and cell numbers were determined using a Coulter counter (Coulter Electronics Inc.).

C450-8 tumors = experiment: Cyclophosphamide sensitivity of subcutaneous tumors; assay type: in vivo, nude mice; details: day 17
Method: (§1) Animal Studies: For animal injections, cultured cells in the proliferative stage were replated 24 hours before harvesting, then trypsinized, centrifuged at low speed, washed once by resuspension in Hank's buffered saline, centrifuged, and then resuspended in DMEM without serum at a density of 5×10^6 cells/mL. For subcutaneous injections, 10^6 C450-8 or C6 cells in 200 μl were injected into the flanks of athymic mice (NCY/Sed, nu/nu; MGH breeding colony; five animals per group). After 3 days, when tumors had reached a volume of about 0.01 cm^3 (as measured by external calipers) (Lee et al., Neurosurgery 26:598-605 (1990) and again at 14 days, 100 μl injections of either 20 mg CPA (Sigma) per mL saline or 100 μl saline were performed directly into the tumor mass. Animals were sacrificed at 17 days by euthanasia.

C6 tumors = experiment: as above; assay type: in vivo, nude mice; details: day 17
Method: as §1

C6 cells = experiment: Cell proliferation assay; assay type: cell-based, rat; details: 0.5 mM, four days
Method: Cell proliferation assays: For cell proliferation assays, cells (2×10^5 per dish, unless otherwise noted) were plated onto 10 cm dishes. […] Incubations were continued for four days and cell numbers were assayed using a Coulter counter (Coulter Electronics Inc.), after harvesting in trypsinEDTA.

[1] = tested on: mixed culture of 9L and 9L-ZP cells; experiment: Cytotoxicity toward mixed cultures; assay type: cell-based, rat; details: Rattus norvegicus, 120 h; equal numbers of 9L and 9L-ZP; 1 mM cyclophosphamide, 5 days; read-out: total cell population eradicated
Method: FIG. 28 is a bar graph depicting the cytotoxicity of oxazaphosphorines toward mixed cultures of 9L and 9L-ZP cells. Equal numbers of parental 9L cells were mixed with 9L-ZP cells (total initial cell number=1×10^5 /30 mm tissue culture dish). […] Cell numbers were determined 5 days after beginning drug treatment. Data (mean ±range of duplicates) are expressed as growth ratio (%) relative to drug-free controls.
To test for drug sensitivity, 1×10^5 cells were plated in 30-mm tissue culture plates (Falcon 3046) in duplicate. Drugs were added 18-24 hours after seeding. Cells were allowed to grow for times ranging up to 5 days after drug treatment, and the final cell number was then determined. Cells were rinsed with phosphate buffered saline or Hank's buffered saline, dispersed using trypsin-EDTA (GIBCO/BRL, Inc.), and then counted with a hemocytometer. Results are expressed as a growth ratio, i.e., the number of cells in plates containing drug as a percentage of the corresponding drug-free controls (mean±range of duplicate determinations).

9L tumors = experiment: Tumor growth delay study; assay type: in vivo, Fischer 344 rats; details: 100 mg/kg single intraperitoneal injection 7 days after implantation; tumors inhibited/total, 7-8 weeks
Method: (§2) Tumor Growth Delay Studies: 9L cells were grown subcutaneously (s.c.) as solid tumors in female Fischer 344 rats. Adult female Fischer 344 rats (120-150g) were inoculated at 2×10^6 cells/s.c. site; cytochrome P450 2B1-negative cells (parental 9L or 9L-Z cells) were injected in one thigh and cytochrome P450 2B1-positive cells (9L-ZP or L450-2 cells) in the other thigh. This strategy was employed to control any potential effects that subcutaneous growth of the 9L tumor might have on liver cytochrome P450-dependent cyclophosphamide activation activity. Drug treatment was initiated seven days after tumor implantation. Rats were randomized and divided into two groups. One group was treated with cyclophosphamide at 100 mg/kg body weight given as a single intraperitoneal injection. Another group was injected with saline as control. Tumor size was monitored by caliper measurement at times ranging up to 7-8 weeks, at which point the animals were sacrificed.

9L-Z tumors = experiment: Tumor growth delay study; assay type: in vivo, Fischer 344 rats; details: 100 mg/kg single intraperitoneal injection 7 days after implantation; tumors inhibited/total, 7-8 weeks
Method: as §2

9L-ZP tumors = experiment: Tumor growth delay study; assay type: in vivo, Fischer 344 rats; details: 100 mg/kg single intraperitoneal injection 7 days after implantation; tumors inhibited/total, 7-8 weeks
Method: as §2

L450-2 tumors = experiment: Tumor growth delay study; assay type: in vivo, Fischer 344 rats; details: 100 mg/kg single intraperitoneal injection 7 days after implantation; tumors inhibited/total, 7-8 weeks
Method: as §2

C6VIK cells = experiment: Ganciclovir sensitivity in vivo, subrenal capsule tumors; set-up: species or system rat; details: 20 mg/kg intraperitoneally daily; reassessed over a 16-day period; two animals
Excerpt: In this study, rat C6 glioma cells were used as a model primary brain tumor type. C6 cells rapidly form a non-encapsulated, non-metastatic tumor after injection into the adult rat CNS. Further, derivative cell lines are available, which lack endogenous TK activity (C6-BUI) or bear the lacZ gene (C6-BAG), which are useful experimentally. A retroviral vector was generated in which the HSV-1-TK gene is regulated by the strong, constitutive retrovirus LTR promoter. C6-BUI cells were infected with this vector and selected for TK activity by growth in HAT medium. Parental and infected cells were tested for their dose-dependent sensitivity to ganciclovir in culture and in vivo following inoculation into the rat subrenal capsule.
Ganciclovir Sensitivity in vivo: Nine rats were implanted in the subrenal capsule with C6VIK cells. Four survived the procedure for further study. Tumors were measured 5 days after implantation. Two animals were treated with ganciclovir (20 mg/kg intraperitoneally daily) and two with saline daily. Tumor size was reassessed over a 16-day period. The two control tumors grew four- to twelve-fold.
This model overcomes the problem of not being able to directly observe the size of an intracerebral tumor implant and the concerns about delivery of ganciclovir through an intact blood-brain barrier.

C6VIKWT cells = details: colony survival; drug from day 7 for 9-12 days
Method: To measure the ganciclovir sensitivity of colony formation, cells were plated in duplicate at a density of 500 cells per 25 cm^2 culture flask. Seven days later, ganciclovir was added at various concentrations (0, 0.1, 0.5, 1, 10, 50, 100, 300 μM) in quadruplicate and incubation was for 9-12 days, with medium changes every 3-5 days. Cells were then fixed with 100% methanol, and stained with Giemsa (Freshney, R. I., "Culture of Animal Cells," in: A Manual of Basic Techniques, 2d ed., New York, Alan R. Liss, Inc., pp. 170-171 (1987)), and colonies ≥2 mm in diameter were counted.

C6BAG and C6VIKWT cells = experiment: Ganciclovir treatment of combined subcutaneous tumors; assay type: in vivo, nude mice
Method: Sequential injections of 10^5 C6BAG cells followed immediately by 10^6 C6BU1 cells, C6VIK cells, or C6VIKWT cells at the same injection site, were carried out as above using 20 animals for each combination. […] Tumor volume was assessed as the percentage increase over the volume at the beginning of treatment through 17 days.

[2] = 2 mg CPA intratumorally day 3 and 14

SMILES	viability at 1000 µM (CNEO-1 cells) [%]	Tumor volume (C450-8 tumors; [2]) [cm^3]	ratio of the mean volumes of CPA-treated to saline-treated tumors (C450-8 tumors)	Tumor volume (C6 tumors; [2]) [cm^3]	ratio of the mean volumes of CPA-treated to saline-treated tumors (C6 tumors)	Effect on cell proliferation (C6 cells)	Cell proliferation assay, number of cells (C6 cells; Table V panel A)	cytotoxicity at 1000 µM [1] [%]	Complete Tumor Growth Inhibition (9L tumors)	Complete Tumor Growth Inhibition (9L-Z tumors)	Complete Tumor Growth Inhibition (9L-ZP tumors)	Complete Tumor Growth Inhibition (L450-2 tumors)	Tumor size after treatment (C6VIK cells)	fold more sensitive than parental line C6VIK at 50% surviving colonies (C6VIKWT cells) [fold]	Tumor size compared to C6BAG and C6BU1 tumors (C6BAG and C6VIKWT cells; 14 day course, 25 mg/kg twice a day intraperitoneally)	Tumor regression (C6BAG and C6VIKWT cells; C6VIK-WT and C6BAG inoculated simultaneously, GCV treatment)
O=P1(N(CCCl)CCCl)NCCCO1 (stereo not shown) [cyclophosphamide]	≥ 80	0.016±0.003	0.035	0.093±0.035	0.124	had no effect	21.10±1.37 ×10^6	~80	0/11	0/9	8/9	11/11	–	–	–	–
Nc1nc(O)c2ncn(COC(CO)CO)c2n1 [ganciclovir]	–	–	–	–	–	–	–	–	–	–	–	–	smaller after the treatment than before	300	even greater decrease in the size	regression of tumors in most nude mice
